# Test results taken from ChEMBL document CHEMBL4308841, “Synthesis, in vitro antiproliferative activity, and kinase inhibitory effects of pyrazole-containing diarylureas and diarylamides” (Eur J Med Chem, 2018).
# Tests used:
# [1] = test system: RPMI-8226; assay: Growth inhibition of human RPMI8226 cells incubated for 48 hrs by sulforhodamine B assay; type: functional, cell-based; details: RPMI-8226, 48 h
# [2] = test system: T47D; assay: Growth inhibition of human T47D cells assessed as cell growth at 1 uM incubated for 48 hrs by sulforhodamine B assay relative to control; type: functional; details: read-out: Activity
# [3] = test system: Malme-3M; assay: Growth inhibition of human MALME-3M cells assessed as cell growth at 100 uM incubated for 48 hrs by sulforhodamine B assay relative to control; type: functional; details: read-out: Activity
# [4] = test system: PC-3; assay: Growth inhibition of human PC3 cells assessed as cell growth at 0.01 uM incubated for 48 hrs by sulforhodamine B assay relative to control; type: functional; details: PC-3, 48 h, read-out: Activity
# [5] = test system: MOLT-4; assay: Growth inhibition of human MOLT4 cells assessed as cell growth at 100 uM incubated for 48 hrs by sulforhodamine B assay relative to control; type: functional; details: MOLT-4, 48 h, read-out: Activity
# [6] = test system: K562; assay: Growth inhibition of human K562 cells assessed as cell growth at 1 uM incubated for 48 hrs by sulforhodamine B assay relative to control; type: functional; details: K562, 48 h, read-out: Activity
# [7] = test system: Hs-578T; assay: Growth inhibition of human Hs578T cells assessed as cell growth at 0.01 uM incubated for 48 hrs by sulforhodamine B assay relative to control; type: functional; details: read-out: Activity
# [8] = test system: NCI/ADR-RES; assay: Growth inhibition of human NCI/ADR-RES cells incubated for 48 hrs by sulforhodamine B assay; type: functional, cell-based
# [9] = test system: NCI-H522; assay: Growth inhibition of human NCI-H522 cells assessed as cell growth at 0.1 uM incubated for 48 hrs by sulforhodamine B assay relative to control; type: functional; details: NCI-H522, 48 h, read-out: Activity
# [10] = test system: SK-OV-3; assay: Growth inhibition of human SKOV3 cells assessed as cell growth at 1 uM incubated for 48 hrs by sulforhodamine B assay relative to control; type: functional; details: SK-OV-3, 48 h, read-out: Activity
# [11] = test system: SK-MEL-28; assay: Growth inhibition of human SK-MEL-28 cells assessed as cell growth at 0.01 uM incubated for 48 hrs by sulforhodamine B assay relative to control; type: functional; details: SK-MEL-28, 48 h, read-out: Activity
# [12] = test system: SK-MEL-2; assay: Growth inhibition of human SK-MEL-2 cells assessed as cell growth at 0.01 uM incubated for 48 hrs by sulforhodamine B assay relative to control; type: functional; details: SK-MEL-2, 48 h, read-out: Activity
# [13] = test system: M14; assay: Growth inhibition of human M14 cells incubated for 48 hrs by sulforhodamine B assay; type: functional, cell-based; details: M14, 48 h
# [14] = test system: LOX IMVI; assay: Growth inhibition of human LOXIMVI cells assessed as cell growth at 100 uM incubated for 48 hrs by sulforhodamine B assay relative to control; type: functional; details: read-out: Activity
# [15] = test system: SNB-19; assay: Growth inhibition of human SNB19 cells incubated for 48 hrs by sulforhodamine B assay; type: functional, cell-based; details: SNB-19, 48 h
# [16] = test system: KM12; assay: Growth inhibition of human KM12 cells assessed as cell growth at 1 uM incubated for 48 hrs by sulforhodamine B assay relative to control; type: functional; details: KM12, 48 h, read-out: Activity
# [17] = test system: RPMI-8226; assay: Growth inhibition of human RPMI8226 cells assessed as cell growth at 100 uM incubated for 48 hrs by sulforhodamine B assay relative to control; type: functional; details: RPMI-8226, 48 h, read-out: Activity
# [18] = test system: HL-60(TB); assay: Growth inhibition of human HL-60(TB) cells assessed as cell growth at 1 uM incubated for 48 hrs by sulforhodamine B assay relative to control; type: functional; details: HL-60, 48 h, read-out: Activity
# [19] = test system: NCI-H322M; assay: Growth inhibition of human NCI-H322M cells incubated for 48 hrs by sulforhodamine B assay; type: functional, cell-based
# [20] = test system: MDA-MB-231; assay: Growth inhibition of human MDA-MB-231 cells assessed as cell growth at 1 uM incubated for 48 hrs by sulforhodamine B assay relative to control; type: functional; details: MDA-MB-231, 48 h, read-out: Activity
# [21] = test system: SN12C; assay: Growth inhibition of human SN12C cells assessed as cell growth at 1 uM incubated for 48 hrs by sulforhodamine B assay relative to control; type: functional; details: read-out: Activity
# [22] = test system: SF-539; assay: Growth inhibition of human SF539 cells assessed as cell growth at 0.1 uM incubated for 48 hrs by sulforhodamine B assay relative to control; type: functional; details: SF-539, 48 h, read-out: Activity
# [23] = test system: UACC-62; assay: Growth inhibition of human UACC62 cells assessed as cell growth at 1 uM incubated for 48 hrs by sulforhodamine B assay relative to control; type: functional; details: UACC-62, 48 h, read-out: Activity
# [24] = test system: BT-549; assay: Growth inhibition of human BT549 cells assessed as cell growth at 0.1 uM incubated for 48 hrs by sulforhodamine B assay relative to control; type: functional; details: BT-549, 48 h, read-out: Activity
# [25] = test system: U-251; assay: Growth inhibition of human U251 cells assessed as cell growth at 0.1 uM incubated for 48 hrs by sulforhodamine B assay relative to control; type: functional; details: U-251, 48 h, read-out: Activity
# [26] = test system: HL-60(TB); assay: Growth inhibition of human HL-60(TB) cells assessed as cell growth at 100 uM incubated for 48 hrs by sulforhodamine B assay relative to control; type: functional; details: HL-60, 48 h, read-out: Activity
# [27] = test system: MDA-MB-435; assay: Growth inhibition of human MDA-MB-435 cells assessed as cell growth at 0.1 uM incubated for 48 hrs by sulforhodamine B assay relative to control; type: functional; details: MDA-MB-435, 48 h, read-out: Activity
# [28] = test system: Malme-3M; assay: Growth inhibition of human MALME-3M cells assessed as cell growth at 0.01 uM incubated for 48 hrs by sulforhodamine B assay relative to control; type: functional; details: read-out: Activity
# [29] = test system: NCI-H23; assay: Growth inhibition of human NCI-H23 cells incubated for 48 hrs by sulforhodamine B assay; type: functional, cell-based; details: NCI-H23, 48 h
# [30] = read-out: LC50 (the source's name)
# [31] = read-out: pLC50 (the source's name) (converted)
compound,measurement,setting,value
COc1cc(Cl)cc(-c2nn(-c3cccc(NC(=O)Nc4cccc(C(F)(F)F)c4)c3)cc2-c2ccncc2)c1,IC50,[1],0.43 µM
same,GI50,[1]; read-out: GI50,0.43 µM
same,CC50,[1]; [30],> 100 µM
same,TGI,[1]; read-out: TGI,23 µM
same,GI50,[1]; read-out: pGI50 (converted),0.427 µM
same,CC50,[1]; [31],> 100 µM
same,TGI,[1]; read-out: pTGI (converted),2.29 µM
same,growth at 1 µM,[2],58%
same,growth at 100 µM,[3],-26%
same,growth at 0.01 µM,[4],91%
same,growth at 100 µM,[5],-36%
same,growth at 1 µM,[6],45%
same,growth at 0.01 µM,[7],99%
same,GI50,[8]; read-out: GI50,1.65 µM
same,CC50,[8]; [30],> 100 µM
same,TGI,[8]; read-out: TGI,75.1 µM
same,GI50,[8]; read-out: pGI50 (converted),1.66 µM
same,CC50,[8]; [31],> 100 µM
same,TGI,[8]; read-out: pTGI (converted),7.76 µM
same,growth at 0.1 µM,[9],53%
same,growth at 1 µM,[10],103%
same,growth at 0.01 µM,[11],99%
same,growth at 0.01 µM,[12],95%
same,GI50,[13]; read-out: GI50,1.34 µM
same,CC50,[13]; [30],15.3 µM
same,TGI,[13]; read-out: TGI,30.5 µM
same,GI50,[13]; read-out: pGI50 (converted),1.35 µM
same,CC50,[13]; [31],16.2 µM
same,TGI,[13]; read-out: pTGI (converted),3.98 µM
same,growth at 100 µM,[14],-53%
same,GI50,[15]; read-out: GI50,2.77 µM
same,CC50,[15]; [30],> 100 µM
same,TGI,[15]; read-out: TGI,35.9 µM
same,GI50,[15]; read-out: pGI50 (converted),2.75 µM
same,CC50,[15]; [31],> 100 µM
same,TGI,[15]; read-out: pTGI (converted),35.5 µM
same,growth at 1 µM,[16],38%
same,growth at 100 µM,[17],-43%
same,growth at 1 µM,[18],81%
same,GI50,[19]; read-out: GI50,2.53 µM
same,CC50,[19]; [30],> 100 µM
same,TGI,[19]; read-out: TGI,22.9 µM
same,GI50,[19]; read-out: pGI50 (converted),2.63 µM
same,CC50,[19]; [31],> 100 µM
same,TGI,[19]; read-out: pTGI (converted),22.4 µM
same,growth at 1 µM,[20],71%
same,growth at 1 µM,[21],59%
same,growth at 0.1 µM,[22],93%
same,growth at 1 µM,[23],70%
same,growth at 0.1 µM,[24],114%
same,growth at 0.1 µM,[25],93%
same,growth at 100 µM,[26],-28%
same,growth at 0.1 µM,[27],97%
same,growth at 0.01 µM,[28],95%
same,GI50,[29]; read-out: GI50,1.76 µM
same,LC50,[29]; read-out: LC50,> 100 µM
same,TGI,[29]; read-out: TGI,55.9 µM
same,GI50,[29]; read-out: pGI50 (converted),1.78 µM
same,LC50,[29]; read-out: pLC50 (converted),> 100 µM
same,TGI,[29]; read-out: pTGI (converted),6.76 µM
COc1cc(Cl)cc(-c2nn(-c3cccc(NC(=O)c4cccc(C(F)(F)F)c4)c3)cc2-c2ccncc2)c1,IC50,[1],3.13 µM
same,GI50,[1]; read-out: GI50,3.12 µM
same,CC50,[1]; [30],> 100 µM
same,TGI,[1]; read-out: TGI,> 100 µM
same,GI50,[1]; read-out: pGI50 (converted),3.16 µM
same,CC50,[1]; [31],> 100 µM
same,TGI,[1]; read-out: pTGI (converted),> 100 µM
same,growth at 1 µM,[2],92%
same,growth at 100 µM,[3],55%
same,growth at 0.01 µM,[4],94%
same,growth at 100 µM,[5],27%
same,growth at 1 µM,[6],90%
same,growth at 0.01 µM,[7],97%
same,GI50,[8]; read-out: GI50,5.38 µM
same,CC50,[8]; [30],> 100 µM
same,TGI,[8]; read-out: TGI,> 100 µM
same,GI50,[8]; read-out: pGI50 (converted),5.37 µM
same,CC50,[8]; [31],> 100 µM
same,TGI,[8]; read-out: pTGI (converted),> 100 µM
same,growth at 0.1 µM,[9],83%
same,growth at 1 µM,[10],99%
same,growth at 0.01 µM,[11],105%
same,growth at 0.01 µM,[12],52%
same,GI50,[13]; read-out: GI50,0.09 µM
same,CC50,[13]; [30],> 100 µM
same,TGI,[13]; read-out: TGI,> 100 µM
same,GI50,[13]; read-out: pGI50 (converted),6.03 µM
same,CC50,[13]; [31],> 100 µM
same,TGI,[13]; read-out: pTGI (converted),> 100 µM
same,growth at 100 µM,[14],41%
same,GI50,[15]; read-out: GI50,> 100 µM
same,CC50,[15]; [30],> 100 µM
same,TGI,[15]; read-out: TGI,> 100 µM
same,GI50,[15]; read-out: pGI50 (converted),> 100 µM
same,CC50,[15]; [31],> 100 µM
same,TGI,[15]; read-out: pTGI (converted),> 100 µM
same,growth at 1 µM,[16],56%
same,growth at 100 µM,[17],22%
same,growth at 1 µM,[18],105%
same,GI50,[19]; read-out: GI50,> 100 µM
same,CC50,[19]; [30],> 100 µM
same,TGI,[19]; read-out: TGI,> 100 µM
same,GI50,[19]; read-out: pGI50 (converted),> 100 µM
same,CC50,[19]; [31],> 100 µM
same,TGI,[19]; read-out: pTGI (converted),> 100 µM
same,growth at 1 µM,[20],58%
same,growth at 1 µM,[21],58%
same,growth at 0.1 µM,[22],100%
same,growth at 1 µM,[23],56%
same,growth at 0.1 µM,[24],94%
same,growth at 0.1 µM,[25],91%
same,growth at 100 µM,[26],49%
same,growth at 0.1 µM,[27],95%
same,growth at 0.01 µM,[28],58%
same,GI50,[29]; read-out: GI50,5.74 µM
same,LC50,[29]; read-out: LC50,> 100 µM
same,TGI,[29]; read-out: TGI,> 100 µM
same,GI50,[29]; read-out: pGI50 (converted),6.76 µM
same,LC50,[29]; read-out: pLC50 (converted),> 100 µM
same,TGI,[29]; read-out: pTGI (converted),> 100 µM
